According to US20220202696A1, “AGENT FOR PROMOTING COLLAGEN PRODUCTION, MEDICAMENT, COSMETIC, AND METHOD FOR MANUFACTURING AGENT FOR PROMOTING COLLAGEN PRODUCTION” (Murata Manufacturing Co., Ltd., priority 2019, published 2022):

Tested on: Normal human dermal fibroblasts
Experiment: Type I collagen production in aging induction-treated fibroblasts (ELISA)
Assay type: cell-based
Conditions: positive control at 25 μmol/L, 48 hours culture, aging induction-treated cells, ELISA of medium
Method: Normal human dermal fibroblasts were maintained using a DMEM medium (+5% FBS) in a culture vessel to confluence. […] After this procedure was repeated once daily for 4 days, the cells were further cultured in DMEM (10% FBS) for 3 days, and the cultured cells were obtained and used as aging induction-treated cells. The aging induction of the cells was confirmed by senescence-associated beta-galactosidase (SA-β-Gal, an aging marker) staining. The aging induction-treated cells were seeded in 48-well plate at a cell density of 5.0×10^4 cells/well using a DMEM medium (+5% FBS). […] Then, the cells were cultured for 48 hours, thereafter the medium was collected, and the amount of type I collagen in the medium was quantified by an ELISA method (direct ELISA using an anti-Human Collagen Type I antibody (Rabbit)).

## O=C1O[C@H]([C@@H](O)CO)C(O)=C1O [vitamin C]
  production of type I collagen: increased
